#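 Following 48 hours of exposure in 96-well plates, responses at five concentrations were used to interpolate endpoints linearly. Definition used: TGI = concentration required for complete inhibition of growth.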
# How the values were obtained:
# Assay in all cases: NCI-60 cell line screen, 48 h
# MALME-3M melanoma = tested on: MALME-3M melanoma
# UACC-62 melanoma = tested on: UACC-62 melanoma
# TK-10 renal = tested on: TK-10 renal
# NCI-H226 lung = tested on: NCI-H226 lung
# MOLT-4 leukemia = tested on: MOLT-4 leukemia
# OVCAR-5 ovarian = tested on: OVCAR-5 ovarian
# COLO 205 colon = tested on: COLO 205 colon
# NCI-H522 lung = tested on: NCI-H522 lung
# KM12 colon = tested on: KM12 colon
# OVCAR-8 ovarian = tested on: OVCAR-8 ovarian
# EKVX NSCLC = tested on: EKVX NSCLC
# SK-OV-3 ovarian = tested on: SK-OV-3 ovarian
# T-47D breast = tested on: T-47D breast
# A549 NSCLC = tested on: A549 NSCLC
# SF-268 CNS = tested on: SF-268 CNS
# MDA-MB-435 = tested on: MDA-MB-435
# UACC-257 melanoma = tested on: UACC-257 melanoma
# HCC-2998 colon = tested on: HCC-2998 colon
# HCT-15 colon = tested on: HCT-15 colon
# SN12C renal = tested on: SN12C renal
# DU-145 prostate = tested on: DU-145 prostate
# HCT-116 colon = tested on: HCT-116 colon
# BT-549 breast = tested on: BT-549 breast
# IGROV1 ovarian = tested on: IGROV1 ovarian
# CCRF-CEM leukemia = tested on: CCRF-CEM leukemia
# SK-MEL-28 melanoma = tested on: SK-MEL-28 melanoma
# MDA-N = tested on: MDA-N
# SNB-19 CNS = tested on: SNB-19 CNS
# ACHN renal = tested on: ACHN renal
# U251 CNS = tested on: U251 CNS
# UO-31 renal = tested on: UO-31 renal
# MDA-MB-231 breast = tested on: MDA-MB-231 breast
# M14 melanoma = tested on: M14 melanoma
# SF-295 CNS = tested on: SF-295 CNS
# RXF 393 renal = tested on: RXF 393 renal
# OVCAR-4 ovarian = tested on: OVCAR-4 ovarian
# SK-MEL-2 melanoma = tested on: SK-MEL-2 melanoma
# HOP-62 NSCLC = tested on: HOP-62 NSCLC
# RPMI-8226 leukemia = tested on: RPMI-8226 leukemia
# A498 renal = tested on: A498 renal
# K-562 leukemia = tested on: K-562 leukemia
# NCI-H23 lung = tested on: NCI-H23 lung
# SK-MEL-5 melanoma = tested on: SK-MEL-5 melanoma
# SW-620 colon = tested on: SW-620 colon
# SF-539 CNS = tested on: SF-539 CNS
# LOX IMVI melanoma = tested on: LOX IMVI melanoma
# PC-3 prostate = tested on: PC-3 prostate
# OVCAR-3 ovarian = tested on: OVCAR-3 ovarian
# HOP-92 NSCLC = tested on: HOP-92 NSCLC
# NCI-H460 lung = tested on: NCI-H460 lung
# NCI/ADR-RES ovarian = tested on: NCI/ADR-RES ovarian
# MCF7 breast = tested on: MCF7 breast
# SNB-75 CNS = tested on: SNB-75 CNS
# 786-0 renal = tested on: 786-0 renal
# SR leukemia = tested on: SR leukemia
# HT29 colon = tested on: HT29 colon
# CAKI-1 renal = tested on: CAKI-1 renal
# HS 578T breast = tested on: HS 578T breast
# HL-60(TB) leukemia = tested on: HL-60(TB) leukemia
smiles,measurement,setting,value
CC(=O)O[C@H]1CC[C@@]2(C)C(=CC[C@@H]3[C@@H]2CC[C@]2(C)C(=O)/C(=C\c4ccccc4)C[C@@H]32)C1,TGI,MALME-3M melanoma,> 100 µM
same,TGI,UACC-62 melanoma,> 100 µM
same,TGI,TK-10 renal,> 100 µM
same,TGI,NCI-H226 lung,> 100 µM
same,TGI,MOLT-4 leukemia,> 100 µM
same,TGI,OVCAR-5 ovarian,> 100 µM
same,TGI,COLO 205 colon,> 100 µM
same,TGI,NCI-H522 lung,> 100 µM
same,TGI,KM12 colon,> 100 µM
same,TGI,OVCAR-8 ovarian,> 100 µM
same,TGI,EKVX NSCLC,> 100 µM
same,TGI,SK-OV-3 ovarian,> 100 µM
same,TGI,T-47D breast,> 100 µM
same,TGI,A549 NSCLC,> 100 µM
same,TGI,SF-268 CNS,> 100 µM
same,TGI,MDA-MB-435,> 100 µM
same,TGI,UACC-257 melanoma,> 100 µM
same,TGI,HCC-2998 colon,> 100 µM
same,TGI,HCT-15 colon,> 100 µM
same,TGI,SN12C renal,> 100 µM
same,TGI,DU-145 prostate,> 100 µM
same,TGI,HCT-116 colon,> 100 µM
same,TGI,BT-549 breast,> 100 µM
same,TGI,IGROV1 ovarian,> 100 µM
same,TGI,CCRF-CEM leukemia,> 100 µM
same,TGI,SK-MEL-28 melanoma,> 100 µM
same,TGI,MDA-N,> 100 µM
same,TGI,SNB-19 CNS,> 100 µM
same,TGI,ACHN renal,> 100 µM
same,TGI,U251 CNS,> 100 µM
same,TGI,UO-31 renal,> 100 µM
same,TGI,MDA-MB-231 breast,> 100 µM
same,TGI,M14 melanoma,> 100 µM
same,TGI,SF-295 CNS,> 100 µM
same,TGI,RXF 393 renal,> 100 µM
same,TGI,OVCAR-4 ovarian,> 100 µM
same,TGI,SK-MEL-2 melanoma,> 100 µM
same,TGI,HOP-62 NSCLC,> 100 µM
same,TGI,RPMI-8226 leukemia,> 100 µM
same,TGI,A498 renal,> 100 µM
same,TGI,K-562 leukemia,> 100 µM
same,TGI,NCI-H23 lung,> 100 µM
same,TGI,SK-MEL-5 melanoma,> 100 µM
same,TGI,SW-620 colon,> 100 µM
same,TGI,SF-539 CNS,> 100 µM
same,TGI,LOX IMVI melanoma,> 100 µM
same,TGI,PC-3 prostate,> 100 µM
same,TGI,OVCAR-3 ovarian,> 100 µM
same,TGI,HOP-92 NSCLC,> 100 µM
same,TGI,NCI-H460 lung,> 100 µM
same,TGI,NCI/ADR-RES ovarian,> 100 µM
same,TGI,MCF7 breast,> 100 µM
same,TGI,SNB-75 CNS,> 100 µM
same,TGI,786-0 renal,> 100 µM
same,TGI,SR leukemia,> 100 µM
same,TGI,HT29 colon,> 100 µM
same,TGI,CAKI-1 renal,> 100 µM
O=[N+]([O-])c1cccc(-c2ccc([C@H]3CC(c4ccc(Cl)cc4)=NN3)o2)c1,TGI,MALME-3M melanoma,71.6 µM
same,TGI,UACC-62 melanoma,49.1 µM
same,TGI,TK-10 renal,42.8 µM
same,TGI,NCI-H226 lung,45.8 µM
same,TGI,MOLT-4 leukemia,29.1 µM
same,TGI,OVCAR-5 ovarian,> 100 µM
same,TGI,COLO 205 colon,> 100 µM
same,TGI,NCI-H522 lung,59.1 µM
same,TGI,OVCAR-8 ovarian,27.4 µM
same,TGI,EKVX NSCLC,> 100 µM
same,TGI,SK-OV-3 ovarian,54.5 µM
same,TGI,T-47D breast,41.7 µM
same,TGI,A549 NSCLC,> 100 µM
same,TGI,SF-268 CNS,> 100 µM
same,TGI,MDA-MB-435,54.4 µM
same,TGI,UACC-257 melanoma,83.9 µM
same,TGI,HCC-2998 colon,38.1 µM
same,TGI,HCT-15 colon,40.3 µM
same,TGI,SN12C renal,53.4 µM
same,TGI,HS 578T breast,> 100 µM
same,TGI,DU-145 prostate,50.1 µM
same,TGI,HCT-116 colon,31.2 µM
same,TGI,BT-549 breast,74.9 µM
same,TGI,IGROV1 ovarian,> 100 µM
same,TGI,CCRF-CEM leukemia,90.8 µM
same,TGI,MDA-N,66.7 µM
same,TGI,SNB-19 CNS,89.7 µM
same,TGI,ACHN renal,34.4 µM
same,TGI,UO-31 renal,40.9 µM
same,TGI,M14 melanoma,> 100 µM
same,TGI,SF-295 CNS,88.5 µM
same,TGI,RXF 393 renal,35.2 µM
same,TGI,HL-60(TB) leukemia,24.1 µM
same,TGI,OVCAR-4 ovarian,68.6 µM
same,TGI,HOP-62 NSCLC,57.9 µM
same,TGI,RPMI-8226 leukemia,45.6 µM
same,TGI,A498 renal,88.2 µM
same,TGI,K-562 leukemia,55 µM
same,TGI,SK-MEL-5 melanoma,32.2 µM
same,TGI,SW-620 colon,> 100 µM
same,TGI,OVCAR-3 ovarian,43.3 µM
same,TGI,HOP-92 NSCLC,67.6 µM
same,TGI,NCI/ADR-RES ovarian,76.3 µM
same,TGI,MCF7 breast,> 100 µM
same,TGI,SNB-75 CNS,48.4 µM
same,TGI,786-0 renal,28.5 µM
same,TGI,SR leukemia,32.7 µM
same,TGI,HT29 colon,56.9 µM
same,TGI,CAKI-1 renal,60.5 µM
O=[N+]([O-])c1ccc(-c2ccc([C@H]3CC(c4cc(F)c(Cl)cc4Cl)=NN3)o2)cc1,TGI,MALME-3M melanoma,> 100 µM
same,TGI,UACC-62 melanoma,> 100 µM
same,TGI,TK-10 renal,> 100 µM
same,TGI,NCI-H226 lung,58.9 µM
same,TGI,MOLT-4 leukemia,41 µM
same,TGI,OVCAR-5 ovarian,> 100 µM
same,TGI,NCI-H522 lung,> 100 µM
same,TGI,KM12 colon,> 100 µM
same,TGI,OVCAR-8 ovarian,> 100 µM
same,TGI,EKVX NSCLC,> 100 µM
same,TGI,SK-OV-3 ovarian,> 100 µM
same,TGI,T-47D breast,61.8 µM
same,TGI,SF-268 CNS,> 100 µM
same,TGI,MDA-MB-435,> 100 µM
same,TGI,UACC-257 melanoma,> 100 µM
same,TGI,HCC-2998 colon,38.7 µM
same,TGI,HCT-15 colon,> 100 µM
same,TGI,SN12C renal,> 100 µM
same,TGI,HS 578T breast,> 100 µM
same,TGI,DU-145 prostate,> 100 µM
same,TGI,HCT-116 colon,> 100 µM
same,TGI,BT-549 breast,90.9 µM
same,TGI,IGROV1 ovarian,> 100 µM
same,TGI,CCRF-CEM leukemia,35.1 µM
same,TGI,MDA-N,> 100 µM
same,TGI,SNB-19 CNS,> 100 µM
same,TGI,ACHN renal,> 100 µM
same,TGI,UO-31 renal,> 100 µM
same,TGI,M14 melanoma,> 100 µM
same,TGI,SF-295 CNS,> 100 µM
same,TGI,RXF 393 renal,> 100 µM
same,TGI,HL-60(TB) leukemia,16.2 µM
same,TGI,OVCAR-4 ovarian,> 100 µM
same,TGI,HOP-62 NSCLC,> 100 µM
same,TGI,RPMI-8226 leukemia,> 100 µM
same,TGI,A498 renal,> 100 µM
same,TGI,K-562 leukemia,> 100 µM
same,TGI,NCI-H23 lung,32.9 µM
same,TGI,SK-MEL-5 melanoma,32.2 µM
same,TGI,SW-620 colon,> 100 µM
same,TGI,SF-539 CNS,30.1 µM
same,TGI,LOX IMVI melanoma,> 100 µM
same,TGI,OVCAR-3 ovarian,> 100 µM
same,TGI,HOP-92 NSCLC,> 100 µM
same,TGI,NCI-H460 lung,> 100 µM
same,TGI,NCI/ADR-RES ovarian,90.2 µM
same,TGI,MCF7 breast,> 100 µM
same,TGI,SNB-75 CNS,71.4 µM
same,TGI,786-0 renal,> 100 µM
same,TGI,SR leukemia,77.1 µM
same,TGI,HT29 colon,> 100 µM
same,TGI,CAKI-1 renal,> 100 µM

# — PubChem BioAssay (NCI)
